Assay results reported in the NIST ThermoML archive (doi:10.1021/je049671t).

Assay: xn = mol fraction of the nth substance listed
Conditions: Liquid, Vibrating tube method

CCCC [butane] + CCC
Conditions | mass density [kg/m3]
300 K, 4513.8 kPa, x2 = 0.75 | 523.55
300 K, 4514.7 kPa, x2 = 0.5 | 543.88
300 K, 4953.2 kPa, x2 = 0.5 | 544.76
300 K, 5016.7 kPa, x2 = 0.75 | 524.69
300 K, 5031 kPa, x2 = 0.25 | 562.9
300 K, 5451.1 kPa, x2 = 0.25 | 563.65
300 K, 5474.7 kPa, x2 = 0.75 | 525.74
300 K, 5508.8 kPa, x2 = 0.5 | 545.86
300 K, 5929.8 kPa, x2 = 0.25 | 564.5
300 K, 5950 kPa, x2 = 0.75 | 526.78
300 K, 5953 kPa, x2 = 0.5 | 546.73
300 K, 6466.1 kPa, x2 = 0.5 | 547.72
300 K, 6473.6 kPa, x2 = 0.75 | 527.92
300 K, 6488.8 kPa, x2 = 0.25 | 565.48
300 K, 6959.9 kPa, x2 = 0.5 | 548.68
300 K, 7015.2 kPa, x2 = 0.75 | 529.08
300 K, 7074.7 kPa, x2 = 0.25 | 566.49
320 K, 997.4 kPa, x2 = 0.25 | 529.12
320 K, 1482.2 kPa, x2 = 0.25 | 530.41
320 K, 1496.3 kPa, x2 = 0.5 | 509.2
320 K, 1509.8 kPa, x2 = 0.75 | 484.66
320 K, 1996.7 kPa, x2 = 0.25 | 531.76
320 K, 2010.3 kPa, x2 = 0.5 | 510.79
320 K, 2020.7 kPa, x2 = 0.75 | 486.64
320 K, 2497.1 kPa, x2 = 0.75 | 488.41
320 K, 2502.8 kPa, x2 = 0.25 | 533.06
320 K, 2516.5 kPa, x2 = 0.5 | 512.32
320 K, 2999.8 kPa, x2 = 0.5 | 513.74
320 K, 3011.6 kPa, x2 = 0.75 | 490.26
320 K, 3012.6 kPa, x2 = 0.25 | 534.34
320 K, 3459.5 kPa, x2 = 0.75 | 491.82
320 K, 3509.2 kPa, x2 = 0.5 | 515.19
320 K, 3516.7 kPa, x2 = 0.25 | 535.58
320 K, 4012.1 kPa, x2 = 0.25 | 536.73
320 K, 4013.7 kPa, x2 = 0.75 | 493.68
320 K, 4017.1 kPa, x2 = 0.5 | 516.6
320 K, 4472 kPa, x2 = 0.25 | 537.8
320 K, 4497.4 kPa, x2 = 0.5 | 517.9
320 K, 4512.7 kPa, x2 = 0.75 | 495.29
320 K, 4988.6 kPa, x2 = 0.5 | 519.21
320 K, 4989.7 kPa, x2 = 0.25 | 539
320 K, 5019.1 kPa, x2 = 0.75 | 496.89
320 K, 5490.6 kPa, x2 = 0.5 | 520.51
320 K, 5501 kPa, x2 = 0.25 | 540.19
320 K, 5520.4 kPa, x2 = 0.75 | 498.43
320 K, 5989.8 kPa, x2 = 0.5 | 521.77
320 K, 6001.7 kPa, x2 = 0.75 | 499.85
320 K, 6013.9 kPa, x2 = 0.25 | 541.36
320 K, 6479.5 kPa, x2 = 0.5 | 522.98
320 K, 6522.9 kPa, x2 = 0.75 | 501.37
320 K, 6524.6 kPa, x2 = 0.25 | 542.42
320 K, 7003.8 kPa, x2 = 0.25 | 543.49
320 K, 7020.7 kPa, x2 = 0.75 | 502.78
320 K, 7116.4 kPa, x2 = 0.5 | 524.52
340 K, 1485.3 kPa, x2 = 0.25 | 500.98
340 K, 1990.9 kPa, x2 = 0.25 | 502.87
340 K, 1994.9 kPa, x2 = 0.75 | 448.06
340 K, 2013.6 kPa, x2 = 0.5 | 478.5
340 K, 2454.3 kPa, x2 = 0.25 | 504.54
340 K, 2508.8 kPa, x2 = 0.5 | 480.75
340 K, 2527.2 kPa, x2 = 0.75 | 451.44
340 K, 2997.6 kPa, x2 = 0.25 | 506.44
340 K, 3013.6 kPa, x2 = 0.5 | 482.96
340 K, 3018 kPa, x2 = 0.75 | 454.37
340 K, 3488 kPa, x2 = 0.25 | 508.09
340 K, 3515.5 kPa, x2 = 0.5 | 485.04
340 K, 3542.6 kPa, x2 = 0.75 | 457.27
340 K, 3984.5 kPa, x2 = 0.25 | 509.71
340 K, 4016.2 kPa, x2 = 0.5 | 487.04
340 K, 4021.6 kPa, x2 = 0.75 | 459.81
340 K, 4469.1 kPa, x2 = 0.75 | 462.01
340 K, 4496.8 kPa, x2 = 0.5 | 488.89
340 K, 4514.8 kPa, x2 = 0.25 | 511.39
340 K, 4981.8 kPa, x2 = 0.25 | 512.84
340 K, 4991.2 kPa, x2 = 0.75 | 464.48
340 K, 5012.2 kPa, x2 = 0.5 | 490.8
340 K, 5479.2 kPa, x2 = 0.25 | 514.33
340 K, 5511.6 kPa, x2 = 0.5 | 492.6
340 K, 5517 kPa, x2 = 0.75 | 466.87
340 K, 5958.5 kPa, x2 = 0.25 | 515.74
340 K, 5990.2 kPa, x2 = 0.75 | 468.91
340 K, 6031.2 kPa, x2 = 0.5 | 494.4
340 K, 6477.8 kPa, x2 = 0.25 | 517.22
340 K, 6495 kPa, x2 = 0.75 | 471.01
340 K, 6534.4 kPa, x2 = 0.5 | 496.09
340 K, 6953.2 kPa, x2 = 0.75 | 472.85
340 K, 6991.8 kPa, x2 = 0.25 | 518.67
340 K, 7014.4 kPa, x2 = 0.5 | 497.66
360 K, 1968.3 kPa, x2 = 0.25 | 468.3
360 K, 2483.2 kPa, x2 = 0.25 | 471.24
360 K, 2528 kPa, x2 = 0.5 | 441.58
360 K, 2981.1 kPa, x2 = 0.75 | 400.91
360 K, 3014.4 kPa, x2 = 0.5 | 445.35
360 K, 3030.5 kPa, x2 = 0.25 | 474.17
360 K, 3479.5 kPa, x2 = 0.25 | 476.45
360 K, 3504.1 kPa, x2 = 0.75 | 407.74
360 K, 3530.7 kPa, x2 = 0.5 | 449
360 K, 4004.6 kPa, x2 = 0.25 | 478.98
360 K, 4023.8 kPa, x2 = 0.5 | 452.26
360 K, 4034.2 kPa, x2 = 0.75 | 413.59
360 K, 4494.7 kPa, x2 = 0.25 | 481.23
360 K, 4499.5 kPa, x2 = 0.75 | 418.08
360 K, 4529.2 kPa, x2 = 0.5 | 455.37
360 K, 4959.4 kPa, x2 = 0.75 | 422.1
360 K, 5018.1 kPa, x2 = 0.25 | 483.52
360 K, 5025.4 kPa, x2 = 0.5 | 458.22
360 K, 5477.4 kPa, x2 = 0.75 | 426.13
360 K, 5492.3 kPa, x2 = 0.25 | 485.53
360 K, 5525 kPa, x2 = 0.5 | 460.95
360 K, 5965.8 kPa, x2 = 0.75 | 429.75
360 K, 5999.9 kPa, x2 = 0.25 | 487.58
360 K, 6017.8 kPa, x2 = 0.5 | 463.52
360 K, 6472.2 kPa, x2 = 0.25 | 489.44
360 K, 6494 kPa, x2 = 0.75 | 433.3
360 K, 6530.6 kPa, x2 = 0.5 | 466.12
360 K, 6960.2 kPa, x2 = 0.75 | 436.27
360 K, 6966.9 kPa, x2 = 0.25 | 491.3
360 K, 6972.7 kPa, x2 = 0.5 | 468.36
380 K, 2507.8 kPa, x2 = 0.25 | 426.44
380 K, 3006.4 kPa, x2 = 0.25 | 431.76
380 K, 3508.7 kPa, x2 = 0.25 | 436.48
380 K, 3523.1 kPa, x2 = 0.5 | 395.46
380 K, 3998.7 kPa, x2 = 0.25 | 440.67
380 K, 4001.1 kPa, x2 = 0.5 | 402.87
380 K, 4476.5 kPa, x2 = 0.5 | 409.03
380 K, 4501.1 kPa, x2 = 0.25 | 444.52
380 K, 4538.7 kPa, x2 = 0.75 | 349.07
380 K, 4998.7 kPa, x2 = 0.25 | 448.08
380 K, 5019 kPa, x2 = 0.5 | 415.08
380 K, 5025.3 kPa, x2 = 0.75 | 362.3
380 K, 5491.2 kPa, x2 = 0.75 | 371.58
380 K, 5494.5 kPa, x2 = 0.5 | 419.73
380 K, 5497.5 kPa, x2 = 0.25 | 451.38
380 K, 5962.5 kPa, x2 = 0.5 | 423.89
380 K, 5986.2 kPa, x2 = 0.75 | 379.48
380 K, 5995.5 kPa, x2 = 0.25 | 454.49
380 K, 6480.6 kPa, x2 = 0.5 | 428.09
380 K, 6502.4 kPa, x2 = 0.25 | 457.46
380 K, 6503.9 kPa, x2 = 0.75 | 386.32
380 K, 6897.6 kPa, x2 = 0.75 | 390.75
380 K, 6908.8 kPa, x2 = 0.5 | 431.3
380 K, 6952.8 kPa, x2 = 0.25 | 459.99

mass density [kg/m3]
Conditions | 300 K | 320 K | 340 K | 360 K | 380 K
x2 = 0.25 | 554.07 | 528.42 | 499.52 | 466.36 | 424.79
x2 = 0.5 | 535.4 | 507.52 | 475.99 | – | 387.07
x2 = 0.75 | 514.2 | 483.71 | 447.59 | 398.44 | –
